SMILES strings stand for the structures. Counter-ions that a name gives are not always drawn. Where only a bound is given, the exact number is not on record here.

This assay has as its target T1, Recombinant human HSD17B13 enzyme (Homo sapiens, UniProt Q7Z5P4).
T1 sequence (Q7Z5P4 20-300): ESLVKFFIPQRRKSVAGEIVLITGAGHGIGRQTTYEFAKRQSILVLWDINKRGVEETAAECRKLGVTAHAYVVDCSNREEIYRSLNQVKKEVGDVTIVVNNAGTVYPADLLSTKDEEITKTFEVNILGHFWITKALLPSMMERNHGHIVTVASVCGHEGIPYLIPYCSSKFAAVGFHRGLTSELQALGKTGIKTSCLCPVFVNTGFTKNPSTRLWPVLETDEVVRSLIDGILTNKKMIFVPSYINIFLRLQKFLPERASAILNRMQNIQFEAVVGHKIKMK
Kind of assay: HSD17b13 NAD(P)H-Glo biochemical assay. As to conditions: for IC50: 50 uM estradiol, 1 mM NAD+, NAD(P)H-Glo luminescence, read-out: HSD17β13 IC50. The procedure, abridged:
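Luminescent NAD(P)H-Glo read-out, taken after 1 hour at RT, measured cofactor reduction. Substrate and cofactor were estradiol at 50 uM and NAD+ at 1 mM final, reacted with the recombinant human enzyme for 3 hours at 37° C in 20 mM Tris pH7.4, 0.002% Tween-20, 0.02% BSA. Compound was pre-incubated with enzyme for 20 minutes at RT.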

For the compound `Oc1cc2c(cnn2-c2ccc(-c3cccnc3)cc2)cc1F` [Compound 13.14, 5-Fluoro-1-(4-(pyridin-3-yl)phenyl)-1H-indazol-6-ol], the inhibition at 30 µM (3 h, at 30 uM compound, read-out: HSD17β13 % at 30 uM) was 40%. In the case of `Oc1cccc(-c2ccc(-n3nc(F)c4cc(F)c(O)c(F)c43)cc2)c1` [Compound 5.4, 3,5,7-Trifluoro-1-(3′-hydroxy-[1,1′-biphenyl]-4-yl)-1H-indazol-6-ol], the IC50 – broadly, the concentration that inhibits the measured activity by half – was in the range of 100 to 1000 nM. With `CC1CCN(c2ccc(-n3ncc4cc(F)c(O)c(F)c43)cc2)CC1` [Compound 23.18, 5,7-Difluoro-1-(4-(4-methylpiperidin-1-yl)phenyl)-1H-indazol-6-ol], the IC50 was < 100 nM. In the case of `Oc1c(F)cc2cnn(-c3ccc(-c4cc[nH]n4)cc3)c2c1F` [Compound 14.2, 1-(4-(1H-Pyrazol-3-yl)phenyl)-5,7-difluoro-1H-indazol-6-ol], the IC50 was 100 to 1000 nM. As for `[O-][S+]1CCC2(CC1)CN(c1ccc(-n3ncc4cc(F)c(O)c(F)c43)cc1)C2` [Compound 32.1, 2-(4-(5,7-Difluoro-6-hydroxy-1H-indazol-1-yl)phenyl)-7-thia-2-azaspiro[3.5]nonane 7-oxide], the IC50 was 100 to 1000 nM. Consider `CCN1CCC(c2ccc(-n3ncc4cc(F)c(O)c(F)c43)cc2)CC1` [Compound 29, 1-(4-(1-Ethylpiperidin-4-yl)phenyl)-5,7-difluoro-1H-indazol-6-ol TFA salt], for which the IC50 was < 100 nM.

In the case of `N#Cc1ccc(-c2ccc(-n3ncc4cc(F)c(O)c(F)c43)cc2)cn1` [Compound 14, 5-(4-(5,7-Difluoro-6-hydroxy-1H-indazol-1-yl)phenyl)picolinonitrile], the IC50 is < 100 nM. For `CC1(C)CCN(c2cnc(-n3nnc4cc(F)c(O)c(F)c43)cn2)CC1` [Compound 26.17, 1-(5-(4,4-Dimethylpiperidin-1-yl)pyrazin-2-yl)-5,7-difluoro-1H-benzo[d][1,2,3]triazol-6-ol], the IC50 is < 100 nM. The same measure, in the same setting: the value for `NS(=O)(=O)c1ccc(-c2ccc(-n3ncc4cc(F)c(O)cc43)cc2)cc1` [Compound 13.38, 4′-(5-Fluoro-6-hydroxy-1H-indazol-1-yl)-[1,1′-biphenyl]-4-sulfonamide] was < 100 nM; that for `Oc1c(F)cc2cnn(-c3ccc(N4CCC5(CCC5)CC4)cc3)c2c1F` [Compound 23.24, 1-(4-(7-Azaspiro[3.5]nonan-7-yl)phenyl)-5,7-difluoro-1H-indazol-6-ol] was < 100 nM; that for `CC1(C)CCN(c2ccc(N3C(=O)C(=O)c4cc(F)c(O)c(F)c43)cc2)CC1` [Compound 7.2, 1-(4-(4,4-Dimethylpiperidin-1-yl)phenyl)-5,7-difluoro-6-hydroxyindoline-2,3-dione] was 100 to 1000 nM.

For `CS(=O)(=O)N1CCN(c2cnc(-n3ncc4cc(F)c(O)c(F)c43)nc2)CC1` [Compound 26.9, 5,7-Difluoro-1-(5-(4-(methylsulfonyl)piperazin-1-yl)pyrimidin-2-yl)-1H-indazol-6-ol], the half-inhibitory concentration (IC50) fell in the range of 100 to 1000 nM. On to `Oc1cccc(-c2ccc(-n3ncc4c(C(F)(F)F)c(F)c(O)cc43)cc2)c1` [Compound 4, 5-Fluoro-1-(3′-hydroxy-[1,1′-biphenyl]-4-yl)-4-(trifluoromethyl)-1H-indazol-6-ol], for which the IC50 is 100 to 1000 nM. For the compound `Oc1cc2c(cnn2-c2ccc(-c3ccccn3)cc2)cc1F` [Compound 13.13, 5-Fluoro-1-(4-(pyridin-2-yl)phenyl)-1H-indazol-6-ol], the half-inhibitory concentration (IC50) was in the range of 1000 to 30000 nM. Turning to `CCn1c(=O)n(-c2ccc(N3CCC(C)(C)CC3)cc2)c2c(F)c(O)c(F)cc21` [Compound 12, 3-(4-(4,4-Dimethylpiperidin-1-yl)phenyl)-1-ethyl-4,6-difluoro-5-hydroxy-1H-benzo[d]imidazol-2(3H)-one], the 50% inhibitory concentration (IC50) was in the range of 100 to 1000 nM. As to `Oc1cccc(-c2ccc(-n3ncc4cc(F)c(O)c(F)c43)cc2)c1` [Compound 13.12, 5,7-Difluoro-1-(3′-hydroxy-[1,1′-biphenyl]-4-yl)-1H-indazol-6-ol], the IC50 is < 100 nM. In the case of `Oc1c(F)cc2cnn(-c3ccc(N4CC5(CCOCC5)C4)cc3)c2c1F` [Compound 23.26, 1-(4-(7-Oxa-2-azaspiro[3.5]nonan-2-yl)phenyl)-5,7-difluoro-1H-indazol-6-ol], the IC50 is < 100 nM.

As for `CC1(C)CCN(c2ccc(-n3c(Cl)nc4cc(F)c(O)c(F)c43)cc2)CC1` [Compound 21.9, 2-Chloro-1-(4-(4,4-dimethylpiperidin-1-yl)phenyl)-5,7-difluoro-1H-benzo[d]imidazol-6-ol], the half-maximal inhibitory concentration (IC50) lay in the range of 100 to 1000 nM. For `CS(=O)(=O)c1ccc(-c2ccc(-n3ncc4cc(F)c(O)c(F)c43)cc2)cc1` [Compound 13.40, 5,7-Difluoro-1-(4′-(methylsulfonyl)-[1,1′-biphenyl]-4-yl)-1H-indazol-6-ol], the IC50 lay in the range of 100 to 1000 nM. Take `CC1CN(c2ccc(-n3ncc4cc(F)c(O)c(F)c43)cc2)CCO1` (stereo not drawn) [Compound 20.4, 5,7-Difluoro-1-(4-(2-methylmorpholino)phenyl)-1H-indazol-6-ol]: the IC50 was < 100 nM. On the same count and under the same terms, the value for `Oc1cc2c(cnn2-c2ccc(-c3cccc(F)c3)cc2)cc1F` [Compound 13.4, 5-Fluoro-1-(3′-fluoro-[1,1′-biphenyl]-4-yl)-1H-indazol-6-ol] was 100 to 1000 nM; that for `CS(=O)(=O)N1CCN(c2ccc(-n3ncc4cc(F)c(O)c(Cl)c43)cc2)CC1` [Compound 25, 7-Chloro-5-fluoro-1-(4-(4-(methylsulfonyl)piperazin-1-yl)phenyl)-1H-indazol-6-ol] was 100 to 1000 nM. Take `CC1(C)CCN(c2ccc(-n3ncc4c(C(F)(F)F)c(F)c(O)nc43)cc2)CC1` [Compound 7.4, 1-(4-(4,4-Dimethylpiperidin-1-yl)phenyl)-5-fluoro-4-(trifluoromethyl)-1H-pyrazolo[3,4-b]pyridin-6-ol]: the IC50 is 1000 to 30000 nM. In the case of `Oc1c(F)cc2cnn(-c3cnc(-c4ccc(Cl)cc4)cn3)c2c1F` [Compound 18, 1-(5-(4-Chlorophenyl)pyrazin-2-yl)-5,7-difluoro-1H-indazol-6-ol], the 50% inhibitory concentration (IC50) is < 100 nM.

Take `Oc1cc2c(cnn2-c2ccc(-c3ccccc3F)cc2)cc1F` [Compound 13.3, 5-Fluoro-1-(2′-fluoro-[1,1′-biphenyl]-4-yl)-1H-indazol-6-ol]: the IC50 is 100 to 1000 nM. For `Oc1ccc(-c2ccc(-n3ncc4ccc(O)c(F)c43)cc2)cc1` [Compound 2.4, 7-Fluoro-1-(4′-hydroxy-[1,1′-biphenyl]-4-yl)-1H-indazol-6-ol], the IC50 was in the range of 100 to 1000 nM. On to `Oc1c(F)cc2cnn(-c3ccc(N4CCC5(CC4)COC5)cc3)c2c1F` [Compound 23.25, 1-(4-(2-Oxa-7-azaspiro[3.5]nonan-7-yl)phenyl)-5,7-difluoro-1H-indazol-6-ol], for which the IC50 was < 100 nM. Regarding `Cc1ccc(-c2ccc(-n3ncc4cc(F)c(O)cc43)cc2)cc1` [Compound 13.11, 5-Fluoro-1-(4′-methyl-[1,1′-biphenyl]-4-yl)-1H-indazol-6-ol], the 50% inhibitory concentration (IC50) fell in the range of 100 to 1000 nM. Turning to `CC1(C)CCN(c2ccc(-n3ncc4cnc(O)c(F)c43)cc2)CC1` [Compound 25.4, 1-(4-(4,4-Dimethylpiperidin-1-yl)phenyl)-7-fluoro-1H-pyrazolo[4,3-c]pyridin-6-ol], the inhibition at 10 µM (3 h, at 10 uM compound, read-out: HSD17β13 % at 10 uM) is < 20%.

With `CC1(C)COCCN1c1ccc(-n2ncc3cc(F)c(O)c(F)c32)cc1` [Compound 20.6, 1-(4-(3,3-Dimethylmorpholino)phenyl)-5,7-difluoro-1H-indazol-6-ol], the IC50 fell in the range of 100 to 1000 nM.

As to `Oc1ccc(-c2ccc(-n3cnc4cc(F)c(O)cc43)cc2)cc1` [Compound 9, 5-Fluoro-1-(4′-hydroxy-[1,1′-biphenyl]-4-yl)-1H-benzo[d]imidazol-6-ol], the IC50 is < 100 nM.

With `CC1(C)CCN(c2ccc(-n3ncc4c(Cl)c(F)c(O)cc43)cc2)CC1` [Compound 5.2, 4-Chloro-1-(4-(4,4-dimethylpiperidin-1-yl)phenyl)-5-fluoro-1H-indazol-6-ol], the IC50 fell in the range of 100 to 1000 nM. Regarding `CC1(C)CCC(c2ccc(-n3ncc4cc(F)c(O)c(F)c43)cc2)CC1` [Compound 27, 1-(4-(4,4-Dimethylcyclohexyl)phenyl)-5,7-difluoro-1H-indazol-6-ol], the IC50 is < 100 nM.

With `Oc1c(F)cc2nnn(-c3ccc(N4CCOC[C@@H]4c4ccccc4)cc3)c2c1F` [Compound 26.29, (S)-5,7-Difluoro-1-(4-(3-phenylmorpholino)phenyl)-1H-benzo[d][1,2,3]triazol-6-ol], the IC50 is 100 to 1000 nM.

As to `Oc1ccc(-c2ccc(-n3ncc4ccc(O)cc43)cc2)cc1` [Compound 1, 1-(4′-Hydroxy-[1,1′-biphenyl]-4-yl)-1H-indazol-6-ol], the IC50 was in the range of 100 to 1000 nM. In the case of `Oc1c(F)cc2cnn(-c3ccc(C4CCCCC4)cc3)c2c1F` [Compound 27.5, 1-(4-Cyclohexylphenyl)-5,7-difluoro-1H-indazol-6-ol], the IC50 is < 100 nM. As for `CC(C)C1CCN(c2ccc(-n3ncc4cc(F)c(O)c(F)c43)cc2)CC1` [Compound 20.9, 5,7-Difluoro-1-(4-(4-isopropylpiperidin-1-yl)phenyl)-1H-indazol-6-ol], the IC50 was < 100 nM. The same measure, in the same setting: in the case of `CC1(C)CCN(c2ccc(N3C(=O)Cc4cc(F)c(O)c(F)c43)cc2)CC1` [Compound 33, 1-(4-(4,4-Dimethylpiperidin-1-yl)phenyl)-5,7-difluoro-6-hydroxyindolin-2-one] it was 100 to 1000 nM; in that of `Oc1c(F)cc2cnn(-c3ccc(N4CCC4)cc3)c2c1F` [Compound 23.12, 1-(4-(Azetidin-1-yl)phenyl)-5,7-difluoro-1H-indazol-6-ol], 100 to 1000 nM.

The values are drawn from US20240083853A1, “HSD17B13 INHIBITORS AND USES THEREOF” (FL2022-001, Inc., priority 2020, published 2024).
